Assay results from patent publication US9226911B2, “Method of reducing weight using composition containing fucoxanthin extract” (BEIJING GINGKO GROUP BIOLOGICAL TECHNOLOGY CO., LTD., priority 2009, dated 2016).
Marks after values point to notes of the source that are not given here.

Legend:
[1] = test system: model rats with alimentary obesity; assay: Example 4: body weight of rats with high-fat-feed alimentary obesity, 30 d intragastric administration; assay type: in vivo, SD rats; conditions: x ± s; for Body weight (g) (after experiment): after 30 d intragastric; for Body weight (g) (before experiment): baseline after 1 month high-fat feed, 10 rats per group
Method: (§1) Test substances: Formulations are prepared according to the ratios shown in Table 4 Formulations for feeding animals: high-fat feed is composed of 80% basic feed, 10% lard and 10% yolk powder.
(§2) Grouping and treatment of the test animals: 80 grown-up male healthy SD clean grade rats (body weight 180-210 g) are adaptively fed with basic feed for a week, 10 are used as basic feed control, the rest are fed with high-fat feed. A month later, the group of rats fed with high-fat feed is randomly grouped into 7 groups according to their weights, 10 in each group: model control, fucoxanthin (A), tocotrienols(B), fucoidan(C), composition A+B+C, composition A+B and composition A+C. The group of basic feed keeps on feeding with basic feed, the rest groups are fed with high-fat feeds. The groups of basic feed and model control are intragastrically administrated with distilled water, the rest groups are intragastrically administrated with tested medicines, all administrated for 30 d. The groups of animals are raised in different cages in rooms with the temperature conditioned at (22±2) ° C. and under natural illumination. The rats take food and water freely. Each week, their body weights are measured and the amounts of food they take are observed and recorded. They are weighted after feeding for 30 d.
(§3) Statistical analysis: the variance from the data collected in this experiment is analyzed with SAS package, Dunnett's t test is used to compare statistically the results from different groups, the results of P<0.05 is decided as statistically significant.

[2] = test system: model rats with alimentary obesity; assay: Example 5: abdomen fat in model rats with alimentary obesity; assay type: in vivo, SD rats; conditions: x ± s, 30 d, A 9.06 μg, B 36.25 μg, C 18.12 mg (A + B: A 36.25 μg [sic])
Method: as §1, §2, §3
The procedure was the same as in Example 4. After feeding for 30 d and weighing, executing all the rats, the abdomen fat was peeled off and weighed accurately. Statistical analysis was carried out as in Example 4

[3] = test system: model rats with alimentary obesity; assay: Example 7: fat pads around the kidneys in model rats with alimentary obesity; assay type: in vivo, SD rats; conditions: x ± s; 30 d; A 181.23 μg, B 398.7 μg, C 1.81 mg
Method: as §1, §2, §3
The procedure was the same as in Example 4. After feeding for 30 d and weighing, executing all the rats, the fat pads around the kidneys were taken out and weighed accurately. Statistical analysis was carried out as in Example 4.

[4] = test system: model rats with alimentary obesity; assay: Example 6: fat pads around the testicles in model rats with alimentary obesity; assay type: in vivo, SD rats; conditions: x ± s, 30 days, A 362.5 μg, B 18.12 μg, C 9.06 mg
Method: as §1, §2, §3
The procedure was the same as in Example 4. After feeding for 30 days and weighing, executing all the rats, the fat pads around the testicles were peeled off and weighed accurately. Statistical analysis was carried out as in Example 4.

test subjects = assay: Example 8: clinic intake trial, body weight and abdomen fat areas by CT; assay type: in vivo, human
Text: To examine the weight reducing effect of fucoxanthin composition by means of random control method, 20 eligible test subjects of the age of 20 to 50 were divided into 5 groups, A+B+C, A+C, A+B, A, B+C, with random figure table method. The number of the subjects in each group was n=4. The daily doses of the medicines taken by the subjects were according to Table 12. Apart from being administrated with each of the different tested medicines at the breakfast time according to the set way of taking the medicine, other normal life style and dietetic habit of the subjects were not changed. No low-calorie food recipe was required, no restriction to the food and drink was executed and no extra physical training was carried out. To examining the effect of sampling of the medicine, the subjects were respectively examined before sampling of the medicine and 1 month, 2 and 3 months after the sampling. That is, the bodyweight, waist- and hiplines, blood sugar and blood fat were measured, abdomen CT scanning was carried out and so on. The subjects were periodically followed-up to find out the experiences and to supervise and guarantee compliance of the customers in taking the medicine. For the test, those suffered from serious metabolic diseases that need medicinal control and those taken other weight reducing products had been excluded.
Abdomen fat areas were measured with CT • Instrument: CT Model Pronto; Hitachi, Japan. • 120 kV, 175 mA • Layer thickness of the scanning: 10 mm • Scanning in the umbilical cross-section • Attenuation of the adipose tissue: −250˜−50 HU (CT Unit) • Calculation of the fat areas: total abdomen fat, visceral- and subcutaneous fat (mm^2)
Using CT Scanning, total fat—as well as visceral fat areas were marked out across the umbilical cross-section, the areas were measured respectively, the area of subcutaneous fat was obtained as the difference of both areas.

[5] = per rat A 36.25 μg, B 36.25 μg, C 0.4 mg
[6] = over 30 d intragastric, per rat A 36.25 μg, B 36.25 μg, C 0.4 mg
[7] = n = 4, after vs before, daily dose A 2 mg, B 2 mg, C 22 mg
[8] = x ± s, n = 4, CT, oral daily dose A 2 mg, B 2 mg, C 22 mg

fucoidan
Body weight (g) (after experiment) [1, 5]: 546.59 ± 18.64 g
Body weight (g) (before experiment) [1]: 486.69 ± 21.12 g
Weight increased [1, 6]: 59.90 ± 18.11 g
Abdomen fat [2]: 12.99 ± 1.23 g
Body weight (g) (after experiment) [2]: 546.59 ± 18.64 g
Weight of abdomen fat/body weight ([2]; in % (unit assumed)): 2.38 ± 0.13
Body weight (g) (after experiments) [3]: 546.59 ± 18.64 g
Total weight of fat pads around the kidneys [3]: 9.29 ± 0.61 g
Total weight of fat pads around the kidneys/body weight [3]: 1.70 ± 0.13
Body weight (g) (after experiments) [4]: 546.59 ± 18.64 g
Fat pad weight around the testicles [4]: 9.11 ± 0.48 g
Fat pad weight around the testicles/body weight ([4]; in % (unit assumed)): 1.67 ± 0.13

fucoxanthin
Body weight (g) (after experiment) [1, 5]: 530.18 ± 20.32Δ g
Body weight (g) (before experiment) [1]: 486.50 ± 22.10 g
Weight increased(g) [1, 6]: 43.68 ± 19.13Δ g
Abdomen fat (g) [2]: 9.58 ± 1.99Δ g
Body weight (g) (after experiment) [2]: 530.18 ± 20.32 g
Weight of abdomen fat/body weight [2]: 1.81 ± 0.13Δ
Body weight (g) (after experiments) [3]: 530.18 ± 20.32 g
Total weight of fat pads around the kidneys (g) [3]: 7.42 ± 0.60Δ g
Total weight of fat pads around the kidneys/body weight [3]: 1.42 ± 0.12Δ
Body weight (g) (after experiments) [4]: 530.18 ± 20.32 g
Fat pad weight around the testicles (g) [4]: 7.32 ± 0.83Δ g
Fat pad weight around the testicles/body weight [4]: 1.38 ± 0.11Δ
effects compared with B+C group (test subjects; clinic trial, P<0.05): more significant than B+C group
The area of subcutaneous fat, Decrease (%) (test subjects; [7]): 6.10%
The area of visceral fat, Decrease (%) (test subjects; [7]): 4.20%
Total abdomen fat area, decrease (test subjects; [7]): 5.68%
Body weight Change: decrease by (test subjects; n = 4, oral daily dose A 2 mg, B 2 mg, C 22 mg, after vs before): by 1.5%
The area of subcutaneous fat, Before clinic experiment (test subjects; x ± s, n = 4, CT, difference of total and visceral fat areas, baseline): 15514 ± 1192 mm^2
The area of subcutaneous fat, After clinic experiment (test subjects; x ± s, n = 4, CT, difference of total and visceral fat areas, daily dose A 2 mg, B 2 mg, C 22 mg): 14568 ± 1225* mm^2
Total abdomen fat area, Before clinic experiment (test subjects; x ± s, n = 4, CT, umbilical cross-section, baseline): 36555 ± 1645 mm^2
The area of visceral fat, Before clinic experiment (test subjects; x ± s, n = 4, CT, baseline): 17380 ± 1185 mm^2
The area of visceral fat, After clinic experiment (test subjects; [8]): 16650 ± 1484* mm^2
Total abdomen fat area, After clinic experiment (test subjects; [8]): 34479 ± 1475 mm^2
Body weight, Before clinic experiment (test subjects; x ± s, n = 4, baseline): 68.4 ± 0.13 kg
Body weight, After clinic experiment (test subjects; x ± s, n = 4, oral daily dose A 2 mg, B 2 mg, C 22 mg): 67.37 ± 0.11 kg
